Laboratory results reported in publication PMC11519904, “Comprehensive Cell Biological Investigation of Cytochalasin B Derivatives with Distinct Activities on the Actin Network” (Journal of Natural Products, 2024).
Converted amounts (≈) assume the structure as drawn.

What was measured:
[1] = tested on: Mycobacterium smegmatis (ATCC 7000084); test: Serial dilution assay (MIC), M. smegmatis; type: cell-based; details: Mycolicibacterium smegmatis, ATCC7000084; growth inhibition at 24 h; read-out: minimum inhibitory concentration (MIC) against M. smegmatis
Method: Serial dilutions of compounds were prepared as triplicates in sterile U-bottom-shaped 96-well plates (Corning, USA). Mueller-Hinton broth (MHB) medium was used for bacteria, and YMG medium was used for filamentous fungi and yeasts. The selected organisms represent a broad spectrum of pathogens of clinical interest, as well as sensitive indicator strains (Gram-positive bacteria: Bacillus subtilis (DSM 10), Staphylococcus aureus (DSM 346), Mycobacterium smegmatis (ATCC 7000084); Gram-negative bacteria: Acinetobacter baumannii (DSM 30008), Chromobacterium violaceum (DSM 30191), Escherichia coli (DSM 1116), Pseudomonas aeruginosa (PA 14); fungi and yeast: Schizosaccharomyces pombe (DSM 70572), Pichia anomala (DSM 6766), Mucor hiemalis (DSM 2656), Candida albicans (DSM 1665), Rhodotorula glutinis (DSM 10134)).
The compounds were dissolved in MeOH (1 mg/mL), added to the bacterial suspension, and diluted to the final concentrations. The plate was incubated at 37 °C under static conditions. Growth inhibition was assessed at 24 h. MeOH was used as negative control. […]

[2] = tested on: glucose carrier in human erythrocytes; details: cited from earlier work

For `C=C1[C@@H](C)[C@H]2[C@H](Cc3ccccc3)NC(=O)[C@]23OC(=O)/C=C/[C@H](O)CCC[C@@H](C)C/C=C/[C@H]3[C@@H]1OC(C)=O` [Compound 3, 7-O-acetyl cytochalasin B], the MIC [1] is listed as 66.6 µg/mL (≈ 128 µM), the “binding to site I of the glucose carrier” value ([2]; human erythrocyte membranes ref 30) is listed as “able to bind site I” and the “inhibition of glucose transport” value ([2]; human erythrocytes ref 29, 30) is listed as “inhibits glucose transport”.
